For assay [1], the target named is T1, hEBI2 (Homo sapiens, UniProt P32249). Description: GTPγS assay on EBI2 membranes. The format is biochemical. Also noted: expressed in transfected cells; host or cells: CHO-K1 expressing apoaequorin (CHO-Aeq) with Gqi5; line E2. As to the method: (§1) The cell suspension was then homogenized using a Dounce homogenizer (10 strokes) with a driller. After centrifugation at 110000×g for 45 minutes and removal of the supernatant, pellets were resuspended in sucrose buffer (50 mM Tris pH7.2, 250 mM sucrose, 10% glycerol) by vortexing. The suspension was again homogenize using a Dounce homogenizer (10 strokes) and spun at 100000×g for 45 minutes. The supernatant was discarded, the pellet resuspended in sucrose buffer, protein concentration determined, aliquoted and frozen at −80° C. These membrane preparations were used in binding as well as GTPgS assays.
Ten micrograms of EBI2 membranes are dissolved in 40 μl of buffer A (20 mM Hepes pH 7.4, 100 mM NaCl, 1.5 mM MgCl2, Saponin 10 μg/ml) supplemented with 10 μM GDP. After addition of […] scintilation proximity assay (SPA) beads (100 μg/well, Amersham, RPNQ0001) components are gently mixed and incubated at RT for 15 minutes. Twenty microliters of compound diluted in buffer A and 20 μl of GTPγ^35S (Perkin Elmer NEG030X) is added before incubation for one hour at RT. Plates are transferred and counted in a TopCount (Perkin Elmer NXT HTS™) and counts are analysed plotted and to determine half maximal concentrations of activation using standard software (Prism™, GraphPad Software Inc.).

Assay [2] deals with T1, hEBI2. Description: calcium fluorescence (FLIPR). The format is cell-based. Also noted: expressed in transfected cells; host or cells: CHO-K1 expressing apoaequorin (CHO-Aeq) with Gqi5; line E2. As to the method:
If not stated otherwise compounds were dissolved at 10 mM in DMSO or ethanol (cholesterol, 25MDC). Serial dilutions were carried out in 90% DMSO (FLIPR, GTPgS) or assay buffer (binding assay). For cell based assays final DMSO concentrations is kept below 1%.
If not stated otherwise, the same Chinese hamster ovary (CHO) cell line called E2 which was used for the ligand identification was used in these experiments. This cell line is expressing (1) the recombinant human EBI2 receptor, (2) the promiscuous Gqi5 protein as well as (3) apo-aequorin.
Cells were seeded in black/clear bottom, poly-D-Lysine coated 384-well plates at a cell density of 10,000 cells/25 μL/well, using culture medium. Cells were cultured for 24 hours at 37° C./5% CO2. Culture medium was removed and for cell loading, 20 μl per well of loading buffer (Calcium-4 no wash dye) were distributed into the wells and the plates were incubated for 60 min at 37° C. in 5% CO2. With the FLIPR pipettor, 10 μl of the different compounds were added to the cells and the subsequent fluorescent changes monitored for 3 minutes. Using the FLIPR software tool, 2 values of fluorescence calcium responses were exported: Fmax, the fluorescence at the peak and Fbasal corresponding to the value prior to compound injection. From these two values, the calcium response is normalized with respect to the calcium baseline values using dF/F=(Fmax−Fbasal)/Fbasal. The maximum dF/F is called Emax.

Assay [3] concerns the target T1, hEBI2. Description: [3H] 7a,25DHC radio-ligand binding assay (SPA), IC50 determination. Also noted: expressed in transfected cells; host or cells: CHO-K1 expressing apoaequorin (CHO-Aeq) with Gqi5; line E2. As to the method: as §1
Lyophilized wheat germ agglutinin scintilation proximity assay (SPA) beads (RPNQ0001) were purchased from GE Healthcare (Buckinghamshire, UK). One vial (500 mg) is reconstituted by adding 5 mL of distilled water to give a final concentration of 100 mg/mL. Reconstituted SPA beads must be stored at 4° C., but must not be frozen. [3H]-7a,25-OHC, was synthesized by reduction of the 7-keto, 25DHC in the presence of 3H-L-selectride.
The SPA assay was performed in a final volume of 50 μl per well in a 384-well polystyrene Opti plate. The components were added into the wells as follows: • 10 μl tested compounds in 50 mM Tris; 100 mM NaCl; 5 mM MgCl2 and 0.1% Cyclodextrine.
Total binding was determined by the addition of 10 μl of 50 mM Tris; 100 mM NaCl; 5 mM MgCl2 and 0.1% Cyclodextrine and non-specific binding was determined by the addition of 10 μl NVP-BYX998-NX-4 (final concentration of 10 μM). • 20 μL of 10 nM final [3H]-BYX998 in assay buffer (50 mM Tris-HCl, 100 mM NaCl, 5 mM MgCl2 and 0.1% Cyclodextrine). • 20 μL of a mixed bead and membrane suspension in assay buffer, in order to get a final concentration of 20 μg membranes/well and 200 μg beads/well.
The plates were sealed and shaken at room temperature for 10 minutes then allowed to stand at room temperature for at least 12 hours. The plates were counted using a Perkin Elmer TopCount reader, each well being counted for 1 minute.
Each IC50 determination was performed with 11 concentrations.
A standard data reduction algorithm was used to calculate the percentage of specific binding in the presence of test compound as follows: ((B−NSB)/(Total−NSB))·100, where B=Binding in the presence of test compound (in cpm) NSB=Non-specific binding in the presence of excess inhibitor (in cpm) Total=Binding in the absence of test compound (in cpm) Curve fitting of the normalized concentration response curves using a four parameter logistic fit is then performed using XLfit (v.2 or v.4, IDBS, Guildford, UK). The equation used is XLfit equation no. […] By default, min is fixed at 0, whereas max is not fixed.

Assay [4] concerns the target T1, hEBI2. Description: saturation binding, KD determination. On the set-up: expressed in transfected cells; host or cells: CHO-K1 expressing apoaequorin (CHO-Aeq) with Gqi5; line E2. As to the method:
as §1, with “CHO cells stably expressing human EBI2 (E2) were grown in roller bottles (Corning #431191) to confluency, washed with phosphate buffered saline (PBS) once and frozen at −80° C. The frozen cell pellets were resuspended in ice-cold homogenization buffer (10 ml/gram, 20 mM Tris pH7.2) supplemented with a protease inhibitor cocktail (Complete™, Roche, #05 056 489 001-14302200). The cell” for “The cell”
These solutions were made in buffer containing 50 mM Tris; 100 mM NaCl; 5 mM MgCl2 and 0.1% Cyclodextrine.
[…] was measured in presence of a constant 7a,25DHC (NVP-BYX998-NX-4) concentration of 10 uM final and the corresponding total binding was measured with buffer instead of NVP-BYX998-NX-4. […]

In assay [5] the test system is RS11846 cells. Description: chemotaxis 96 transwell assay. The format is cell-based. As to the method: B cells (RS11846 or EBV-infected human B-cells) or murine bone marrow-derived dendritic cells were washed once with medium and resuspended at 1×10^6/ml. 100 μl of this suspension was added into the wells of the filter plate and gently placed into the receiver plate containing 150 μl of a given compound dilution. The final DMSO concentration was less then 0.1%. After migration for 3 hr at 37° C. in an incubator, the filter plate was carefully removed from the receiver plate and discarded. The migrated cells in the receiver plate were resuspended and transferred into round-bottom 96-well plate, centrifuged and resuspended in 100 μl PBS containing 2% FCS and 0.1% NaN3 (FACS buffer). The input cells (100 μl) were similarly processed. For the calculation of the specific migration, a fixed number of beads (10000; Invitrogen #PCB100)) in 20 μl FACS buffer was added and the suspension was analyzed by flow cytometry using a FACS instrument PAS™ (Partec). Cells were identified based on their forward scatter (FSC) and side scatter (SSC) pattern. Chemotaxis is expressed either as total cell number or as percent of input cells.

We go through five molecules from US8497075B2, “Methods of identifying a modulator that inhibits the binding between Epstein-Barr virus induced receptor 2 and cholesterol derived ligands” (Novartis AG, priority 2008, dated 2013).

By EC50 is commonly meant the concentration needed to bring the measured effect to its halfway point. As usually defined, the IC50 is the concentration that gives 50% inhibition. Lower therefore signals greater potency. What is called Kd is the concentration at which binding is half-saturated. Read a high Kd as lower affinity.

T1 sequence (P32249 whole entry): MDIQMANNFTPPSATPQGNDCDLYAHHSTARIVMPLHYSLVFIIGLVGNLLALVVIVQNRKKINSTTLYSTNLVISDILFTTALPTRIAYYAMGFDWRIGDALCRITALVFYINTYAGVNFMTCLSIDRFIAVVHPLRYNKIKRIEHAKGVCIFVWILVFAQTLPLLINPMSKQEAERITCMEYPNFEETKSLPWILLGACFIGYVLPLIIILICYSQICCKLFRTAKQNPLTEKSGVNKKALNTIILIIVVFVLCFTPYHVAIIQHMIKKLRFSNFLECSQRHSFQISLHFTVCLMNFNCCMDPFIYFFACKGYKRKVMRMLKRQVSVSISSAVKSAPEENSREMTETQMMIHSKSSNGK

Turning to `CC(CO)CCC[C@@H](C)[C@H]1CC[C@H]2[C@@H]3[C@@H](O)C=C4C[C@@H](O)CC[C@]4(C)[C@H]3CC[C@]12C` (stereo partly drawn) [7b,27DHC, cholest-5-ene-3b,7b,27-triol], the EC50 was found to be 0.125 µM in assay [1] (n = 3-4, read-out: GTPgS EC50) and 0.31 µM in assay [2] (n = 3-4, read-out: FLIPR EC50). The molecule also registered an IC50 in assay [3] of over 10 µM.
Consider `C[C@H](CCCC(C)(C)O)[C@H]1CC[C@H]2[C@@H]3CC=C4C[C@@H](O)CC[C@]4(C)[C@H]3CC[C@]12C` [25DHC, 25-hydroxycholesterol], for which the EC50 in assay [1] came to 0.727 µM; in assay [2], 3.03 µM. Further, in assay [3], the IC50 was over 10 µM.
As for `C[C@H](CCCC(C)(C)O)[C@H]1CC[C@H]2[C@@H]3[C@H](O)C=C4C[C@@H](O)CC[C@]4(C)[C@H]3CC[C@]12C` [[^3H]-7a,25DHC], the affinity in assay [4], expressed as Kd, was 0.025 µM.
With `C[C@H](CCCC(C)(C)O)[C@H]1CC[C@H]2[C@@H]3[C@@H](O)C=C4C[C@@H](O)CC[C@]4(C)[C@H]3CC[C@]12C` [[^3H]-7b,25DHC], in assay [4] (data not shown), the “specific binding to EBI2 membranes” value is on record as “not able to detect specific binding”.
For pertussis toxin [reference compound], in assay [5], the “inhibition of 7a,25DHC-mediated chemotaxis of RS11846 cells” value is “blocked”.
